Measurements reported in patent publication US20120270929A1, “MODULATION OF TTC39 EXPRESSION TO INCREASE HDL” (ISIS Pharmaceuticals, Inc., priority 2009, published 2012).
Oligonucleotides are written 5' to 3', each unit as a sugar letter and its base; * is a phosphorothioate linkage, no mark a phosphodiester; rarer units and linkages stand in square brackets, end groups in braces. Plain capitals give the bases only. e = 2'-O-(2-methoxyethyl) (MOE); [5mC] = 5-methylcytosine; d = 2'-deoxy (DNA)

Experiments:
murine TTC39B mRNA [1] = assay: Antisense inhibition of murine TTC39B in mouse primary hepatocytes, single dose; assay type: cell-based; conditions: 100 nM, cytofectin, ~24 h, vs untreated control
Method: Antisense oligonucleotides targeted to a TTC39B nucleic acid were tested for their effects on TTC39B mRNA in vitro. Cultured mouse primary hepatocytes at a density of 10,000 cells per well were transfected using cytofectin reagent with 100 nM antisense oligonucleotide. After a treatment period of approximately 24 hours, RNA was isolated from the cells and TTC39B mRNA levels were measured by quantitative real-time PCR. TTC39B mRNA levels were adjusted according to total RNA content, as measured by RIBOGREEN®. Results are presented as percent inhibition of TTC39B, relative to untreated control cells.
The chimeric antisense oligonucleotides in Tables 1 and 2 were designed as 5-10-5 MOE gapmers. The gapmers are 20 nucleotides in length, wherein the central gap segment is comprised of 10 2′-deoxynucleotides and is flanked on both sides (in the 5′ and 3′ directions) by wings comprising 5 nucleotides each. Each nucleotide in the 5′ wing segment and each nucleotide in the 3′ wing segment has a 2′-MOE modification. The internucleoside linkages throughout each gapmer are phosphorothioate (P═S) linkages. All cytosine residues throughout each gapmer are 5-methylcytosines. “Target start site” indicates the 5′-most nucleotide to which the gapmer is targeted. “Target stop site” indicates the 3′-most nucleotide to which the gapmer is targeted. Each gapmer listed in Table 1 is targeted to SEQ ID NO: 6 (GENBANK Accession No. NM_027238.2) and each gapmer listed in Table 2 is targeted to SEQ ID NO: 10 (the complement of GENBANK Accession No. NT—039260.7 truncated at nucleotides 22491001 to 22601000), SEQ ID NO: 11 (GENBANK Accession No. BY244623.1), SEQ ID NO: 12 (GENBANK Accession No. BY260936), SEQ ID NO: 13 (GENBANK Accession No. BM935568.1) or SEQ ID NO: 14 (GENBANK Accession No. BY728780.1).

murine TTC39B mRNA [2] = assay: Dose-dependent antisense inhibition of murine TTC39B in mouse primary hepatocytes (Example 2); assay type: cell-based; conditions: cytofectin, ~16 h
Method: Cells were plated at a density of 10,000 cells per well and transfected using cytofectin reagent with 25 nM, 50 nM, 100 nM, and 200 nM concentrations of antisense oligonucleotide, as specified in Table 3. After a treatment period of approximately 16 hours, RNA was isolated from the cells and TTC39B mRNA levels were measured by quantitative real-time PCR. Murine primer probe set mTtc39b_LTS00287 (forward sequence: […], incorporated herein as SEQ ID NO: 94; reverse sequence: […], incorporated herein as SEQ ID NO: 95; probe sequence: […], incorporated herein as SEQ ID NO: 96) was used to measure mRNA levels. TTC39B mRNA levels were adjusted according to total RNA content, as measured by RIBOGREEN®. Results are presented as percent inhibition of TTC39B, relative to untreated control cells.

[3] = gapmers targeted to SEQ ID NO: 10-14
[4] = gapmers targeted to SEQ ID NO: 6

Sequence	% inhibition of murine TTC39B mRNA (murine TTC39B mRNA [1]; [3]) [%]	% inhibition of murine TTC39B mRNA (murine TTC39B mRNA [1]; [4]) [%]	further results
GAGATCAGTTTCTGATGAAA (antisense eG*eA*eG*eA*eT*d[5mC]*dA*dG*dT*dT*dT*d[5mC]*dT*dG*dA*eT*eG*eA*eA*eA) [ISIS 447169]	67	–	percent inhibition of TTC39B mRNA (murine TTC39B mRNA [2]; 25 nM): 17%; percent inhibition of TTC39B mRNA (murine TTC39B mRNA [2]; 50 nM): 43%; percent inhibition of TTC39B mRNA (murine TTC39B mRNA [2]; 100 nM): 65%; percent inhibition of TTC39B mRNA (murine TTC39B mRNA [2]; 200 nM): 81%
ATGCCATTCTGGATGTCCTG (antisense eA*eT*eG*e[5mC]*e[5mC]*dA*dT*dT*d[5mC]*dT*dG*dG*dA*dT*dG*eT*e[5mC]*e[5mC]*eT*eG) [ISIS 447106]	–	70	percent inhibition of TTC39B mRNA (murine TTC39B mRNA [2]; 25 nM): 41%; percent inhibition of TTC39B mRNA (murine TTC39B mRNA [2]; 50 nM): 55%; percent inhibition of TTC39B mRNA (murine TTC39B mRNA [2]; 100 nM): 78%; percent inhibition of TTC39B mRNA (murine TTC39B mRNA [2]; 200 nM): 87%
AATGCCACCACCTTCAACCA (antisense eA*eA*eT*eG*e[5mC]*d[5mC]*dA*d[5mC]*d[5mC]*dA*d[5mC]*d[5mC]*dT*dT*d[5mC]*eA*eA*e[5mC]*e[5mC]*eA) [ISIS 447138]	–	65	percent inhibition of TTC39B mRNA (murine TTC39B mRNA [2]; 25 nM): 20%; percent inhibition of TTC39B mRNA (murine TTC39B mRNA [2]; 50 nM): 49%; percent inhibition of TTC39B mRNA (murine TTC39B mRNA [2]; 100 nM): 68%; percent inhibition of TTC39B mRNA (murine TTC39B mRNA [2]; 200 nM): 86%
GGCACTCTTTATATATTTGG (antisense eG*eG*e[5mC]*eA*e[5mC]*dT*d[5mC]*dT*dT*dT*dA*dT*dA*dT*dA*eT*eT*eT*eG*eG) [ISIS 447111]	–	71	percent inhibition of TTC39B mRNA (murine TTC39B mRNA [2]; 25 nM): 30%; percent inhibition of TTC39B mRNA (murine TTC39B mRNA [2]; 50 nM): 60%; percent inhibition of TTC39B mRNA (murine TTC39B mRNA [2]; 100 nM): 77%; percent inhibition of TTC39B mRNA (murine TTC39B mRNA [2]; 200 nM): 87%
GCTTACCTTGGACCATTTAC (eG*e[5mC]*eT*eT*eA*d[5mC]*d[5mC]*dT*dT*dG*dG*dA*d[5mC]*d[5mC]*dA*eT*eT*eT*eA*e[5mC]; antisense) [ISIS 447173]	59	–	–
CCAGACAGACACTCAGACCA (antisense e[5mC]*e[5mC]*eA*eG*eA*d[5mC]*dA*dG*dA*d[5mC]*dA*d[5mC]*dT*d[5mC]*dA*eG*eA*e[5mC]*e[5mC]*eA) [ISIS 447149]	–	48	–
TCTGGAAGCATGCTCAAAAT (antisense eT*e[5mC]*eT*eG*eG*dA*dA*dG*d[5mC]*dA*dT*dG*d[5mC]*dT*d[5mC]*eA*eA*eA*eA*eT) [ISIS 447124]	–	60	–
GCAGCTTTCAAGAACACATA (antisense eG*e[5mC]*eA*eG*e[5mC]*dT*dT*dT*d[5mC]*dA*dA*dG*dA*dA*d[5mC]*eA*e[5mC]*eA*eT*eA) [ISIS 447123]	–	47	–
AAAGAGGAGTCCTTCCTTAA (antisense eA*eA*eA*eG*eA*dG*dG*dA*dG*dT*d[5mC]*d[5mC]*dT*dT*d[5mC]*e[5mC]*eT*eT*eA*eA) [ISIS 447160]	63	–	–
AGCCTTGTTCACTGGGAAGA (antisense eA*eG*e[5mC]*e[5mC]*eT*dT*dG*dT*dT*d[5mC]*dA*d[5mC]*dT*dG*dG*eG*eA*eA*eG*eA) [ISIS 447162]	59	–	–
CGGAGATCAGTTTCTTCACT (antisense e[5mC]*eG*eG*eA*eG*dA*dT*d[5mC]*dA*dG*dT*dT*dT*d[5mC]*dT*eT*e[5mC]*eA*e[5mC]*eT) [ISIS 447165]	50	–	–
GTTTTTCACTTTCCACAACG (antisense eG*eT*eT*eT*eT*dT*d[5mC]*dA*d[5mC]*dT*dT*dT*d[5mC]*d[5mC]*dA*e[5mC]*eA*eA*e[5mC]*eG) [ISIS 447128]	–	56	–
TCTTCACTCAGTTGTTCCAG (antisense eT*e[5mC]*eT*eT*e[5mC]*dA*d[5mC]*dT*d[5mC]*dA*dG*dT*dT*dG*dT*eT*e[5mC]*e[5mC]*eA*eG) [ISIS 447108]	–	49	–
ACTCAGTCATACTTTTGGCA (antisense eA*e[5mC]*eT*e[5mC]*eA*dG*dT*d[5mC]*dA*dT*dA*d[5mC]*dT*dT*dT*eT*eG*eG*e[5mC]*eA) [ISIS 447168]	35	–	–
TGTCCGATGGAGATTGTTAA (antisense eT*eG*eT*e[5mC]*e[5mC]*dG*dA*dT*dG*dG*dA*dG*dA*dT*dT*eG*eT*eT*eA*eA) [ISIS 447164]	0	–	–
CATCATTTCCAGGGCTGGCA (antisense e[5mC]*eA*eT*e[5mC]*eA*dT*dT*dT*d[5mC]*d[5mC]*dA*dG*dG*dG*d[5mC]*eT*eG*eG*e[5mC]*eA) [ISIS 447125]	–	54	–
